Assay results: patent publication US5104862A, “Bethalactam elastase inhibitors containing phosphorous acid derivatives at the 4-position of the 2-azetidinone” (Merck & Co., Inc., priority 1991, dated 1992)

Molecular target: T1, human polymorphonuclear leukocyte elastase (human granulocyte elastase) (Homo sapiens, UniProt P08246)
T1 construct: Crude extract of human polymorphonuclear leukocytes (PMN) containing elastase activity; endogenous in cells; host or cells: human polymorphonuclear leukocytes (crude extract)
T1 sequence (P08246 30-267): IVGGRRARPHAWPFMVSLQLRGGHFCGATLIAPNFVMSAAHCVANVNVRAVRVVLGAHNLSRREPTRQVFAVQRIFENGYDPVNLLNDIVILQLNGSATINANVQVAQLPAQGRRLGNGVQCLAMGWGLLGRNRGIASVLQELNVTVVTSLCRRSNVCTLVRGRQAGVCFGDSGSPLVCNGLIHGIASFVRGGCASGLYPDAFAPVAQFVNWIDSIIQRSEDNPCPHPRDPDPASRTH
Assay: Enzyme assay for inhibition of human polymorphonuclear leukocyte elastase via hydrolysis of Boc-AAPAN or Boc-AAPVN
Assay type: biochemical
Conditions: crude extract of human PMN; 0.2 mM Boc-AAPAN or Boc-AAPVN; 0.05M TES buffer pH 7.5; read-out: kobs /I, second order rate constant for inactivation of the enzyme
Description: Enzyme Assays for the Inhibition of Human Polymorphonuclear Leukocyte Elastase Via Hydrolysis of N-t-Boc-alanyl-alanyl-prolyl-alanine-p-nitroanilide (Boc-AAPAN) or N-t-Boc-alanyl-prolyl-valine-p-nitroanilide (Boc-AAPVN) Reagent
0.05M TES (N-tris[hydroxymethyl]methyl-2-amino-ethanesulfonic acid) Buffer, pH 7.5.
0.2 mM Boc-AAPAN or Boc-AAPVN.
To prepare substrate, the solid was first dissolved in 10.0 ml DMSO. Buffer at pH 7.5 was then added to a final volume of 100 ml.
Crude extract of human polymorphonuclear leukocytes (PMN) containing elastase activity.
Inhibitors (azetidinones) to be tested dissolved in DMSO just before use.
To 1.0 ml of 0.2 mM Boc-AAPAN in a cuvette, 0.01-0.1 ml of DMSO with or without inhibitor was added. After mixing, a measurement was taken at 410 mμ to detect any spontaneous hydrolysis due to presence of test compound. 0.05 Milliliters of PMN extract was then added and the ΔOD/min at 410 mμ was measured and recorded. Beckman model 35 spectrophotometer was used.
The elastase activity in the crude PMN extract may vary from one preparation to another. A control of each new batch is run, and the volume added in the assay procedure is adjusted according to activity.

| Compound | kinact/KI [M⁻¹ s⁻¹] |
| --- | --- |
| CCC[C@@H](NC(=O)N1C(=O)C(CC)(CC)[C@@H]1Oc1ccc(CP(=O)(O)c2ccccc2)cc1)c1ccc(C)cc1 [Example 2] | 1.2e+06 |
| C=CCP(=O)(Cc1ccc(O[C@@H]2N(C(=O)N[C@H](CCC)c3ccc(C)cc3)C(=O)C2(CC)CC)cc1)OCC (stereo partly drawn) [Example 3, (4S)-3,3-Diethyl-1-[(R)-α-n-propyl(4-methyl)-benzylaminocarbonyl]-4-[4-(allyl(ethoxyphosphinyl)methyl)phenoxy]-azetidin-2-one] | 1.3e+06 |
| C=CCP(=O)(O)Cc1ccc(O[C@@H]2N(C(=O)N[C@H](CCC)c3ccc(C)cc3)C(=O)C2(CC)CC)cc1 [Example 4, (4S)-3,3-Diethyl-1-[(R)-α-n-propyl(4-methyl)-benzylaminocarbonyl]-4-[4-(allyl(hydroxyphosphinyl)methyl)phenoxy]-azetidin-2-one] | 740000 |
| CCC[C@@H](NC(=O)N1C(=O)C(CC)(CC)[C@@H]1Oc1ccc(CP(C)(=O)O)cc1)c1ccc(C)cc1 [Example 6, (4S)-3,3-Diethyl-1-[(R)-α-n-propyl(4-methyl)-benzylaminocarbonyl]-4-[4-(methyl(hydroxyphosphinyl)methyl)phenoxy]-azetidin-2-one] | 420000 |
| CCC[C@@H](NC(=O)N1C(=O)C(CC)(CC)[C@@H]1Oc1ccc(CP(=O)(O)CCC)cc1)c1ccc(C)cc1 [Example 8, (4S)-3,3-Diethyl-1-[(R)-α-n-propyl(4-methyl)-benzylaminocarbonyl]-4-[4-(n-propyl(hydroxyphosphinyl)methyl)-phenoxy]-azetidin-2-one] | 910000 |
